Experiments:
Assay type in all cases: cell-based, human
[1] = test system: p65 component of NF-κB; assay: Immunohistochemical localization of p65 in M1619 cells; details: 24 hours, catalase 3,000 U/ml, apocynin 150 μg/ml, dicumarol 250 μM
Experimental: (§1) The effect of antioxidants on nuclear activation of NF-κB was studied by incubating near confluent (70%) cell cultures with antioxidant treatments for 1-48 hours. Nuclear protein was harvested, and EMSAs were performed using DNA consensus binding sequences, or nuclear translocation of the p65 component of NF-κB was studied by immunoperoxidase staining, as outlined below.
Immunohistochemical Localization of NF-κB. Cells grown on sterile coverslips and treated with catalase 3,000 U/ml, apocynin 150 μg/ml, or DPBS or DMSO vehicles for 24 h were fixed for 20 min on ice with 4% paraformaldehyde in DPBS with protease inhibitors, PI [Sigma protease inhibitor cocktail, 10 μl/ml, containing 4-(2-aminoethyl)benzensulfonyl fluoride (AEBSF), pepstatin A, trans-epoxysuccinyl-L-leucylamindo-(guanidino)butane (E-64), bestatin, leupeptin and aprotinin]. Cells were permeabilized by treating for 2 min with 0.1% NP-40 in DPBS/PI, washed once with cold DPBS and fixed as before for 10 min. Coverslips were incubated in 3% hydrogen peroxide for 30 min to suppress any remaining peroxidase, and washed three times in cold DPBS. The permeabilized and fixed cells were blocked for 2 hours with 2% BSA in DPBS on ice and incubated overnight at 4° C. with 1 μg/ml of anti-p65 antibody (Santa Cruz) diluted in 0.1% BSA/DPBS. Unbound anti-p65 was washed away with 2% BSA/DPBS and bound antibody was stained by incubation with biotinylated goat anti-rabbit immunoglobulin diluted 1:50 in 0.1% BSA/DPBS for 45 min on ice. Excess secondary antibody was washed away by 3 washes with 2% BSA/DPBS on ice. After washing, the cells were incubated with a streptavidin-biotin-peroxidase complex at room temperature for 1 hr, washed again, and incubated in 0.03% wt/vol 3-3′diaminobenzidine with 0.003% vol/vol hydrogen peroxide until a brown reaction product could be seen. Cells were then counterstained with eosin and mounted on glass slides before viewing under light microscopy. […]

[2] = test system: Adeno-squamous lung carcinoma NCI-H596 cells; assay: MTT proliferation assay, NCI-H596 lung carcinoma; details: Catalase 3000 U/ml; 10% FBS; 48 hours; mean±SE vs control
Experimental: Measurement of Proliferation in Cell Cultures. […] This assay empirically distinguishes between dead and living cells.
Cell Culture Treatments. The effect of antioxidant treatments on proliferation of malignant cell lines was studied in cultures stimulated with 10% FBS. Cell numbers were quantitated by the MTT assay 24-72 hours later. In some experiments, antioxidants were added immediately after cells were plated. In other experiments, cells were plated and allowed to grow for 24 hours before fresh media with antioxidants was added, and cell numbers were studied by the MTT assay 48 hours later.
Cells stimulated with 10% FBS were plated at a density of 50,000 cells per well. DMSO and antioxidants were added to cell wells at the indicated concentrations. […] Each value represents a mean of at least 4 experiments.

[3] = test system: NF-κB; assay: EMSA of constitutive nuclear NF-κB DNA binding, LNCaP; details: LNCaP prostate carcinoma; catalase 3,000 U/ml for 24 hours
Experimental: as §1
Electrophoretic Mobility Shift Assays (EMSAs). Nuclear protein was isolated and DNA binding reactions were performed as previously described in detail, Kennedy et al., Am. J. Respir. Cell Mol. Biol. 19:366-378 (1998). Monolayers were washed twice in cold DPBS and equilibrated 10 min on ice with 0.7 ml cold cytoplasmic extraction buffer, CEB (10 mM Tris, pH 7.9, 60 mM KCl, 1 mM EDTA, 1 mM DTT) with protease inhibitors, PI (1 mM Pefabloc, 50 μg/ml antipain, 1 μg/ml leupeptin, 1 μg/ml pepstatin, 40 μg/ml bestatin, 3 μg/ml E-64 and 100 μg/ml chymostatin). […] DNA-protein binding reactions were performed with 2 μg of nuclear protein (as determined by the Pierce method) and 30-80,000 cpm of ^32P-end-labelled double-stranded DNA probe in 10 mM Tris-HCl, pH 7.5, 50 mM NaCl, 0.5 mM EDTA, 0.5 mM DTT, 1 mM MgCl2, 50 μg/ml poly dI-dC, and 4% glycerol. […] Gels were dried and analyzed by autoradiography at −80° C. using an image intensifier screen. […]

## Catalase
[1]
  anti-p65 staining in nuclei (nuclear translocation of NF-κB): little staining in nuclei
[2]
  Percent Growth Inhibition: 69 ± 4
[3]
  constitutive nuclear DNA binding activity for NF-κB: suppressed
